Patent US5100907A, “Hydantoin esters” (Lonza, Inc., priority 1990, dated 1992)

How the values were obtained:
[1] = Emulsion stability tests; format: physicochemical; details: for Classification of Emulsion: 2% ester, 7% myristyl propionate, 91% water
Experimental: Emulsion stability tests were performed on the esters (I), and for comparison on the precursor esters (Ia), to determine the extent to which each stabilized a standardized solution of water and an oil, using a common procedure consisting of homogenizing a mixture containing the test ester (2%), myristyl propionate (7%), and water (91%). While two emulsifiers are normally used to prepare a cosmetic formulation, e.g. one with a high HLB and the other with a low HLB, the test method herein using only one emulsifier, i.e. the test ester, is fully indicative of the emulsifying attributes of these esters.
The tests were performed with emulsions (500 g), prepared by combining the test ester (10.0 g), myristyl propionate (35 g), and distilled water (455 g) in a container and homogenizing the contents for one minute, via a Kika-Werk Ultra-Turrax S D-45 homogenizer. The emulsions were poured into a one pound flint jar, capped, and periodically examined over a 55 day period.

[2] = HLB determination (weighted average method); format: physicochemical
Description: Hydrophilic-Lipophilic Balance or HLB is a means of associating the hydrophilic and lipophilic characteristics between two surfactants. A "weighted average" method was used to determine the HLB of the esters (I), and by comparison of the precursor ester (Ia), in which two emulsifiers of known HLB values along with the test ester were incorporated in a mixture of mineral oil and water. Evaluation and HLB determination of each of a series of prepared emulsion samples were effected by visual inspection.
The HLB of the mixture "m" is calculated from the sum of the HLB contributions of each surfactant, "a", "b", "c", per Equation 2 which describes a system of oil, water, and three surfactants.
Given that [HLB]m, [HLB]a, and [HLB]b, are known, and the ideal amount of "a", "b", and "c" to prepare a perfect emulsion has been determined, then by rearrangement of Eq. 2, the HLB of "c" can be calculated by Equation 3.
To obtain the HLB of the test ester as surfactant "c", a series of formulations was prepared in which the known surfactant sorbitan monostearate (SMS) as "a" and the known surfactant POE 20 sorbitan monostearate (POE 20 SMS) as "b" were varied in amount (wt. %) relative to each other at a constant amount (1 wt. %) of "c", until an optimum emulsion was obtained. Different combinations of "a" and "b" were used to vary the HLB of "c", for emulsifying a 40:56 (wt. %) mixture of paraffin oil and distilled water (totaling 96 wt. %).
To prepare the emulsions, surfactants "a", "b", and "c", and the paraffin oil were combined in a 150 ml beaker and heated slowly with agitation to 70°-80° C. The value of "X" in each formulation was predetermined by rearranging Eq. 3 to solve for X, and then inserting into the equation various [HLB]c values for the test ester (i.e., 2, 3, 4, 5, 6 . . . ). The [HLB]c values chosen reflected a range that would likely contain the actual HLB of the test ester. Hot distilled water (70°-80° C.) was then slowly added with agitation. The total weight of all these reagents was 100 grams. The resulting emulsion was allowed to cool, with continued agitation, until the temperature dropped below 30° C.
A series of emulsions for each test was prepared, one at a time, and then examined as a set. Each sample within the series was evaluated and graded according to the quality of the emulsion by visual examination of droplet size.

[3] = system: Pseudomonas aeruginosa; assay: Antimicrobial study against Pseudomonas aeruginosa (gram-negative bacteria); format: cell-based; details: methylolated C8/10 10,800 ppm, methylolated lauric 11,400 ppm, DMDMH 3,000 ppm, others 14,700 ppm
Experimental: (§1) The antimicrobial properties of typical esters (I) and (Ia) were tested by minimum inhibitory concentration (MIC) tests, along with certain known substances, against […] strains of organisms: a mold, Aspergillus niger; a gram-positive bacteria, Staphylococcus aureus; and two gram-negative bacteria, Escherichia coli and Pseudomonas aeruginosa. […] These tests were used to determine any effect on biocidal activity of the varying chain length of the ester.
(§2) The known substances, on which identical tests were also performed, included the biocide, dimethyloldimethylhydantoin or DMDMH (iv), and a series of three surfactants, i.e., the three common emulsifiers, sodium lauryl sulfate (SLS); ethylene glycol distearate (EGDS), in the form of the commercial product PEGOSPERSE 50 DS (Lonza Inc.); and polyoxyethylene 20 sorbitan monoleate (POE 20 SMO), in the form of the commercial product GLYCOSPERSE 0 20 (Lonza Inc.).
(§3) The tests entailed contaminating a preexisting micro-colony with a known quantity (ppm, concentration) of test material. Each colony was then examined periodically over a one week period. […] A test was deemed non-efficacious when there was no decrease in colony size. In an effort to avoid any possible solvent effect, the micro-study was conducted in a totally aqueous solvent system without use of any other solvent.

[4] = system: Staphylococcus aureus; assay: Antimicrobial study against Staphylococcus aureus (gram-positive bacteria); format: cell-based; details: methylolated C8/10 10,800 ppm, methylolated lauric 11,400 ppm, DMDMH 3,000 ppm, others 14,700 ppm
Experimental: as §1, §2, §3

[5] = system: Aspergillus niger; assay: Antimicrobial study against Aspergillus niger (mold); format: cell-based; details: methylolated C8/10 10,800 ppm, methylolated lauric 11,400 ppm, DMDMH 3,000 ppm, others 14,700 ppm
Experimental: as §1, §2, §3

[6] = system: Escherichia coli; assay: Antimicrobial study against Escherichia coli (gram-negative bacteria); format: cell-based; details: methylolated C8/10 10,800 ppm, methylolated lauric 11,400 ppm, DMDMH 3,000 ppm, others 14,700 ppm
Experimental: as §1, §2, §3

[7] = Dispersion stability tests; format: physicochemical
Experimental: The dispersion stability tests were performed on the esters (I) to determine the extent each was able to disperse itself in an aqueous medium.
The dispersions were prepared by homogenizing a mixture of the test ester and water, after which repeated examination of the sample was effected for a period of 55 days. This test method is fully indicative of the dispersibility of these esters (I).
The dispersion tests were performed with the esters at 0.5% and 5.0% active levels in water, prepared by combining the test ester with distilled water, and homogenizing the mixture for one to three minutes, via a Kika-Werk Ultra-Turrax S D-45 homogenizer. The dispersions were poured into an eight ounce flint jar, capped, and periodically examined over a 55 day period.

Compound: CCCCCCCCCCCCCCCCCC(=O)OCCN1C(=O)NC(=O)C1(C)C [Stearic Non-Methylolated Ester, 2-(5,5-dimethyl-1,3-diazacyclopentane-2,4-dion-1-yl)-ethyl ester of stearic acid]
- Classification of Emulsion ([1]; 2 Hours after preparation): 2-Phase
- Classification of Emulsion ([1]; 7 Days after preparation): 2-Phase
- Classification of Emulsion ([1]; 22 Days after preparation): 2-Phase
- Classification of Emulsion ([1]; 55 Days after preparation): 2-Phase
- Average HLB [2]: 1.5
- HLB Range [2]: 1-3

Compound: CCCCCCCCCCCC(=O)OCCN1C(=O)NC(=O)C1(C)C [Non-Methylolated Lauric Ester, 2-(5,5-dimethyl-1,3-diazacyclopentane-2,4-dion-1-yl)-ethyl ester of lauric acid]
- Colony Count ([3]; Day 0): TNC
- Colony Count ([3]; Day 1): TNC
- Colony Count ([3]; Day 2): TNC
- Colony Count ([3]; Day 3): 250 × 1,000
- Colony Count ([3]; Day 7): TNC
- Colony Count ([4]; Day 0): TNC
- Colony Count ([4]; Day 1): 500 × 1,000
- Colony Count ([4]; Day 2): 3,000 × 1,000
- Colony Count ([4]; Day 3): TNC
- Colony Count ([4]; Day 7): 30 × 1,000
- Colony Count ([5]; Day 0): 300 × 1,000
- Colony Count ([5]; Day 1): 200 × 1,000
- Colony Count ([5]; Day 2): 200 × 1,000
- Colony Count ([5]; Day 3): 220 × 1,000
- Colony Count ([5]; Day 7): 150 × 1,000
- Average HLB [2]: 6.5
- HLB Range [2]: 5-7
- Colony Count ([6]; Day 0): TNC
- Colony Count ([6]; Day 1): TNC
- Colony Count ([6]; Day 2): TNC
- Colony Count ([6]; Day 3): TNC
- Colony Count ([6]; Day 7): TNC

Compound: CCCCCCCC/C=C\CCCCCCCC(=O)OCCN1C(=O)NC(=O)C1(C)C [Oleic Non-Methylolated Ester, 2-(5,5-dimethyl-1,3-diazacyclopentane-2,4-dion-1-yl)-ethyl ester of oleic acid]
- Classification of Emulsion ([1]; 7 Days after preparation): 2-Phase
- Classification of Emulsion ([1]; 22 Days after preparation): 2-Phase
- Classification of Emulsion ([1]; 55 Days after preparation): 2-Phase
- Average HLB [2]: 8.5
- HLB Range [2]: 8-9

Compound: CC(=O)OCCN1C(=O)NC(=O)C1(C)C [Acetic Non-Methylolated Ester, 2-(5,5-dimethyl-1,3-diazacyclopentane-2,4-dion-1-yl)-ethyl ester of acetic acid]
- Classification of Emulsion ([1]; 2 Hours after preparation): 2-Phase
- Classification of Emulsion ([1]; 7 Days after preparation): 2-Phase
- Classification of Emulsion ([1]; 22 Days after preparation): 2-Phase
- Classification of Emulsion ([1]; 55 Days after preparation): 2-Phase
- Average HLB [2]: 7.0
- HLB Range [2]: 6-8

Compound: 2-(3-hydroxymethyl-5,5-dimethyl-1,3-diazacyclopentane-2,4-dion-1-yl)-ethylester of coconut fatty acid [Coconut Methylolated Ester]
- ability to stabilize emulsions [1]: the best emulsifiers tested
- duration of stabilized emulsions [1]: more than 22 days
- stability of dispersions in water [7]: stable for weeks

Compound: mixture of the 2-(3-hydroxymethyl-5,5-dimethyl-1,3-diazacyclopentane-2,4-dion-1-yl)-ethylesters of caprylic acid and capric acid [Methylolated C8/10 Ester]
- ability to stabilize emulsions [1]: generally unable to stabilize an emulsion for more than two hours

Compound: 2-(5,5-dimethyl-1,3-diazacyclopentane-2,4-dion-1-yl)-ethyl ester of isostearic acid [Isostearic Non-Methylolated Ester]
- Classification of Emulsion ([1]; 7 Days after preparation): 2-Phase
- Classification of Emulsion ([1]; 22 Days after preparation): 2-Phase
- Classification of Emulsion ([1]; 55 Days after preparation): 2-Phase
- Average HLB [2]: 7.0
- HLB Range [2]: 6-7
